Assay results reported in PubChem BioAssay AID330 (DTP/NCI, 2004).
“And” between values parts separate entries of the source, which are not always exact repeats. Equal values may be shown once. Toxic doses and inconclusive results are not listed. Rule for the calls: active = survival T/C of 150% or more; inactive = T/C below 125% in these data.

System: P388 leukemia ip, CD2F1 mice, survival T/C
Test: NCI In Vivo Anticancer Drug Screen. Data for tumor model P388 Leukemia (intraperitoneal) in CD2F1 (CDF1) mice
Conditions: endpoint: median survival time, higher = longer survival
In short: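 Mice carrying the transplanted tumor received test compound or vehicle. Survival was recorded in each group, and the value is the treated-group measurement divided by that of the vehicle-treated control group.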

[1] = dose: 50.0 mg/kg/injection, schedule: Q01DX009 (ip), vehicle: saline with Tween-80
[2] = dose: 100.0 mg/kg/injection, schedule: Q01DX009 (ip), vehicle: saline with Tween-80
[3] = dose: 200.0 mg/kg/injection, schedule: Q01DX009 (ip), vehicle: saline with Tween-80
[4] = dose: 50.0 mg/kg/injection, schedule: Q01DX005 (ip), vehicle: Klucel (hydroxypropylcellulose) (HPC)
[5] = dose: 100.0 mg/kg/injection, schedule: Q01DX005 (ip), vehicle: Klucel (hydroxypropylcellulose) (HPC)
[6] = dose: 200.0 mg/kg/injection, schedule: Q01DX005 (ip), vehicle: Klucel (hydroxypropylcellulose) (HPC)
[7] = dose: 50.0 mg/kg/injection, schedule: Q01DX005 (ip), vehicle: saline with Tween-80
[8] = dose: 100.0 mg/kg/injection, schedule: Q01DX005 (ip), vehicle: saline with Tween-80
[9] = dose: 200.0 mg/kg/injection, schedule: Q01DX005 (ip), vehicle: saline with Tween-80
[10] = dose: 60.0 mg/kg/injection, schedule: Q01DX005 (ip), vehicle: saline with Tween-80
[11] = dose: 120.0 mg/kg/injection, schedule: Q01DX005 (ip), vehicle: saline with Tween-80
[12] = dose: 240.0 mg/kg/injection, schedule: Q01DX005 (ip), vehicle: saline with Tween-80
[13] = dose: 50.0 mg/kg/injection, schedule: Q01DX009 (ip), vehicle: Klucel (hydroxypropylcellulose) (HPC)
[14] = dose: 100.0 mg/kg/injection, schedule: Q01DX009 (ip), vehicle: Klucel (hydroxypropylcellulose) (HPC)
[15] = dose: 200.0 mg/kg/injection, schedule: Q01DX009 (ip), vehicle: Klucel (hydroxypropylcellulose) (HPC)
[16] = dose: 100.0 mg/kg/injection, schedule: Q04DX003 (ip), vehicle: saline with Tween-80

Measured: T/C

C[C@]12CC[C@@H](OC(=O)N(CCCl)N=O)C[C@@H]1CC[C@@H]1[C@@H]2CC[C@]2(C)C(=O)CC[C@@H]12
inactive: dose: 25.0 mg/kg/injection, schedule: Q01DX005 (ip), vehicle: other 105 % of control | dose: 25.0 mg/kg/injection, schedule: Q01DX009 (ip), vehicle: other 121 % of control | dose: 31.2 mg/kg/injection, schedule: Q04DX003 (ip), vehicle: saline 111 % of control | dose: 50.0 mg/kg/injection, schedule: Q01DX005 (ip), vehicle: other 122 % of control | dose: 50.0 mg/kg/injection, schedule: Q01DX009 (ip), vehicle: other 123 % of control | [1] 97 % of control | dose: 62.5 mg/kg/injection, schedule: Q04DX003 (ip), vehicle: saline 109 % of control | dose: 100.0 mg/kg/injection, schedule: Q01DX005 (ip), vehicle: other 114 % of control | [2] 100 % of control | dose: 125.0 mg/kg/injection, schedule: Q04DX003 (ip), vehicle: saline 108 % of control and 112 % of control | [3] 97 % of control | dose: 250.0 mg/kg/injection, schedule: Q04DX003 (ip), vehicle: saline 100 % of control

Nc1nc(/C=C\c2ccccc2)cc(-c2cc(/C=C\c3ccccc3)nc(N)n2)n1
inactive: dose: 30.0 mg/kg/injection, schedule: Q01DX005 (ip), vehicle: Klucel (hydroxypropylcellulose) (HPC) 97 % of control | dose: 60.0 mg/kg/injection, schedule: Q01DX005 (ip), vehicle: Klucel (hydroxypropylcellulose) (HPC) 90 % of control and 94 % of control | dose: 120.0 mg/kg/injection, schedule: Q01DX005 (ip), vehicle: Klucel (hydroxypropylcellulose) (HPC) 97 % of control | dose: 240.0 mg/kg/injection, schedule: Q01DX005 (ip), vehicle: Klucel (hydroxypropylcellulose) (HPC) 95 % of control

Cc1nc(Nc2ccccc2)c2c(-c3ccccc3)c[nH]c2n1
inactive: [4] 89 % of control | [5] 90 % of control | [6] 100 % of control

O=C1Oc2ccccc2CC1C(=O)c1ccc([N+](=O)[O-])cc1 (stereo not drawn)
inactive: [7] 99 % of control | [8] 106 % of control | [9] 103 % of control

O=C1C(Cl)=C(Nc2ccc(C#Cc3ccccc3)cc2)C(=O)C(Cl)=C1Nc1ccc(C#Cc2ccccc2)cc1
inactive: [1] 91 % of control | [2] 91 % of control | [3] 87 % of control

CC(C)=CCn1c2ccccc2c(=O)c2ccccc21
inactive: [7] 112 % of control | [8] 105 % of control | [9] 107 % of control

O=C(O)C1(Cc2ccc(O)cc2)NCCS1 (stereo not drawn)
inactive: dose: 100.0 mg/kg/injection, schedule: Q04DX002 (ip), vehicle: Klucel (hydroxypropylcellulose) (HPC) 104 % of control | dose: 200.0 mg/kg/injection, schedule: Q04DX002 (ip), vehicle: Klucel (hydroxypropylcellulose) (HPC) 104 % of control

C=C(CCCC)CNCCOC(=O)c1ccc([N+](=O)[O-])cc1
inactive: dose: 12.5 mg/kg/injection, schedule: Q04DX003 (ip), vehicle: saline 104 % of control | dose: 25.0 mg/kg/injection, schedule: Q04DX003 (ip), vehicle: saline 104 % of control | dose: 50.0 mg/kg/injection, schedule: Q04DX003 (ip), vehicle: saline 104 % of control

O/N=C/C(=Nc1ccccc1N=C(/C=N/O)NO)NO
inactive: [10] 95 % of control | [11] 103 % of control | [12] 94 % of control

O=C1c2ccccc2C(=O)c2cc(NC(=O)C(F)(F)F)ccc21
inactive: dose: 50.0 mg/kg/injection, schedule: Q01DX005 (ip), vehicle: Klucel + Tween-80 99 % of control | dose: 100.0 mg/kg/injection, schedule: Q01DX005 (ip), vehicle: Klucel + Tween-80 95 % of control | dose: 200.0 mg/kg/injection, schedule: Q01DX005 (ip), vehicle: Klucel + Tween-80 96 % of control

CCN(CC)CCCNc1nccc2ccc(OC)cc12
inactive: dose: 50.0 mg/kg/injection, schedule: Q01DX005 (ip), vehicle: saline 99 % of control | dose: 100.0 mg/kg/injection, schedule: Q01DX005 (ip), vehicle: saline 99 % of control | dose: 200.0 mg/kg/injection, schedule: Q01DX005 (ip), vehicle: saline 97 % of control

CCN(CC)c1ccc(CCc2ccc(N(CC)CC)c3cccnc23)c2ncccc12
inactive: [4] 99 % of control | [5] 112 % of control | [6] 94 % of control

CNC(=O)OCc1c(COC(=O)NC)c(-c2ccc(C(F)(F)F)cc2)n(C)c1C
inactive: dose: 3.13 mg/kg/injection, schedule: Q01DX009 (ip), vehicle: distilled water + Tween-80 123 % of control | dose: 50.0 mg/kg/injection, schedule: Q01DX009 (ip), vehicle: distilled water + Tween-80 115 % of control

N#C[C@@H]1C2C=CC(CC2)[C@H]1C#N
inactive: dose: 1.25 mg/kg/injection, schedule: Q01DX009 (ip), vehicle: saline with Tween-80 100 % of control | dose: 1.25 mg/kg/injection, schedule: Q04DX003 (ip), vehicle: saline with Tween-80 91 % of control | dose: 2.5 mg/kg/injection, schedule: Q01DX009 (ip), vehicle: saline with Tween-80 112 % of control | dose: 2.5 mg/kg/injection, schedule: Q04DX003 (ip), vehicle: saline with Tween-80 104 % of control | dose: 5.0 mg/kg/injection, schedule: Q04DX003 (ip), vehicle: saline with Tween-80 91 % of control

CC(=O)OC1CCC2(C)C(C1)CC(OC(C)=O)C1C2CC(OC(C)=O)C2(C)C(C(C)CC(=O)C(=O)c3ccccc3)CCC12 (stereo not drawn)
inactive: [1] 103 % of control | [2] 94 % of control | [3] 98 % of control

Cc1ccc(CCNC(=O)c2c3nc4c(C(=O)NCCc5ccc(C)cc5)ccc(C)c4oc-3c(C)c(=O)c2N)cc1
inactive: dose: 25.0 mg/kg/injection, schedule: Q04DX003 (ip), vehicle: DMSO 98 % of control | dose: 50.0 mg/kg/injection, schedule: Q04DX003 (ip), vehicle: DMSO 99 % of control | dose: 100.0 mg/kg/injection, schedule: Q04DX003 (ip), vehicle: DMSO 91 % of control

O=C(O)CSc1ncccc1Nc1ccc([N+](=O)[O-])cn1
inactive: dose: 50.0 mg/kg/injection, schedule: Q01DX009 (ip), vehicle: saline 102 % of control | dose: 100.0 mg/kg/injection, schedule: Q01DX009 (ip), vehicle: saline 86 % of control

CC(C)=CC(=O)NCCO
inactive: dose: 100.0 mg/kg/injection, schedule: Q04DX002 (ip), vehicle: saline 100 % of control | dose: 200.0 mg/kg/injection, schedule: Q04DX002 (ip), vehicle: saline 100 % of control | dose: 400.0 mg/kg/injection, schedule: Q04DX002 (ip), vehicle: saline 105 % of control

CN1C(=O)C(n2[nH]c(=O)n(-c3ccc(Cl)cc3)c2=O)C(=O)N(C)C1=O
inactive: [13] 100 % of control | [14] 100 % of control | [15] 97 % of control

O=CNNC(=S)Nc1ccccc1
inactive: [1] 113 % of control | [2] 109 % of control | [3] 108 % of control

O=c1[nH]n(-c2ccccc2)c2ccccc12
inactive: dose: 12.5 mg/kg/injection, schedule: Q04DX003 (ip), vehicle: saline with Tween-80 94 % of control | dose: 25.0 mg/kg/injection, schedule: Q04DX003 (ip), vehicle: saline with Tween-80 90 % of control | dose: 50.0 mg/kg/injection, schedule: Q04DX003 (ip), vehicle: saline with Tween-80 90 % of control | [16] 95 % of control

CCC(=O)OC1(c2ccccc2)CCP(C)(=S)CC1 (stereo not drawn)
inactive: [13] 97 % of control | [14] 106 % of control | [15] 101 % of control

CC(=O)Oc1cc2c(c(OC(C)=O)n1)C(C)N(Cc1ccccc1)C2=O (stereo not drawn)
inactive: [13] 106 % of control | [14] 106 % of control | [15] 115 % of control

CCOC(=O)C1CN2C(=O)CCC2C1=O (stereo not drawn)
inactive: dose: 60.0 mg/kg/injection, schedule: Q01DX005 (ip), vehicle: saline 104 % of control | dose: 120.0 mg/kg/injection, schedule: Q01DX005 (ip), vehicle: saline 103 % of control | dose: 240.0 mg/kg/injection, schedule: Q01DX005 (ip), vehicle: saline 103 % of control

COc1ccccc1OCC(O)CNc1ccc(Cl)cc1C(=O)c1ccccc1 (stereo not drawn)
inactive: [10] 103 % of control | [11] 105 % of control | [12] 94 % of control

CC1(c2ccco2)NC(=O)NC1=O (stereo not drawn)
inactive: [16] 90 % of control | dose: 200.0 mg/kg/injection, schedule: Q04DX003 (ip), vehicle: saline with Tween-80 100 % of control | dose: 400.0 mg/kg/injection, schedule: Q04DX003 (ip), vehicle: saline with Tween-80 90 % of control
